Data published in patent publication US20160067246A1, “USE OF PHOSPHODIESTERASE 5A INHIBITORS FOR THE TREATMENT OF MUSCULAR DYSTROPHY” (CEDARS-SINAI MEDICAL CENTER, priority 2013, published 2016).
Where two headings read alike, the source gives them in different places.

Key:
Format in all cases: in vivo, human
[1] = Tadalafil blood levels by HPLC/tandem MS in BMD patients
Experimental: (§1) The order of tadalafil/placebo was random. The research pharmacist placed tadalafil tablets or lactose powder (placebo) in opaque capsules to blind patients and investigators, both for the test dose and study dose of drug or placebo. Patients were queried about potential tadalafil-specific side-effects both for safety monitoring and to assess whether blinding was maintained. tadalafil blood levels were measured using high performance liquid chromatography/tandem mass spectrometry (NMS Labs Willow Grove, Pa.).

[2] = Pharmacokinetic study and drug blood levels in boys with DMD; conditions: for half-life: serum, oral, read-out: elimination half-life (converted)
Experimental: Serum blood samples for pharmacokinetic determinations were collected from patients at time 0-hr, 0.25-hr, 0.5-hr, 1-hr, 2-hr, 4-hr, 8-hr, and 24-hr following each treatment (sildenafil and tadalafil) and each dose (0.5 vs. 1.0 mg/kg). Blood levels were measured with high-performance liquid chromatography-tandem mass spectrometry (NMS Labs).
Patients received 0.5 mg/kg of oral sildenafil or tadalafil on day 1, followed by 1.0 mg/kg of sildenafil or tadalafil on day 2. Patients then crossed over 2 weeks later for the opposite drug. Experiments were performed 1 hour (sildenafil) or 3 hours (tadalafil) after oral treatment to match the experiment with the peak blood level. Patients were queried about potential side-effects throughout the study visit.

[3] = test system: boys with Duchenne muscular dystrophy (DMD); test: Functional sympatholysis (LBNP, NIR spectroscopy, rest vs handgrip) with PDE5 inhibition in DMD; conditions: DMD
Experimental: Forearm muscle oxygenation was measured with near-infrared (NIR) spectroscopy, as previously described.^4B Briefly, optodes were placed over the belly of the flexor digitorum profundus, the main muscle recruited during handgrip. The optodes were housed in a customized flexible rubber casing, ensuring a fixed and invariant position of the optodes relative to each other, and was secured to the skin with adhesive. The optodes were covered with an optically dense, black vinyl sheet, to minimize interference from external light or loss of NIR transmitted light. The forearm was wrapped with an elastic bandage to minimize movement of the optodes.
Before each experiment, absorption and scattering coefficients were calibrated against an external standard. After each experiment, a cuff was inflated on the upper arm to supra-systolic pressure of 200 mmHg to establish the total labile signal (TLS, the difference between the baseline and nadir in muscle tissue oxygenation). Changes in forearm tissue oxygenation were expressed as a percentage of TLS.
Handgrip exercise was performed with a dynamometer (Smedley Hand Dynamometer modified by Stoelting). To determine maximal voluntary contraction (MVC), each subject was asked to grip the dynamometer as hard as possible. […] Subjects performed intermittent isometric handgrip (20 handgrips per minute, 50% duty cycle) at 20% MVC for 7 minutes.
The subjects lower body was enclosed in a negative pressure chamber to the level of the iliac crest as previously described.^9B The pressure of the chamber was measured by a Statham transducer (Gould Inc.). Lower body negative pressure (LBNP) at −20 mmHg simulates mild orthostatic stress (that is, transition from the supine to the seated position). This technique mainly unloads the cardiopulmonary baroreceptors, producing highly reproducible reflex increases in sympathetic vasoconstrictor drive to the skeletal muscle vasculature without changing systemic blood pressure.^9B
The subjects' lower body was enclosed in a negative pressure chamber to the level of the iliac crest as previously described. The pressure in the chamber was measured by a Statham transducer (Gould Inc.). Lower body negative pressure (LBNP) at −20 to −30 mmHg simulates mild orthostatic stress caused by transition from the supine to the seated position. This technique mainly unloads the low-pressure cardiopulmonary baroreceptors, producing highly reproducible reflex increases in sympathetic vasoconstrictor drive to the skeletal muscle vasculature without changing systemic blood pressure. To measure exercise-induced attenuation of reflex vasoconstriction (i.e., functional sympatholysis), the LBNP was (i) applied at rest, and then (ii) superimposed on mild rhythmic handgrip at 20% MVC. Reflex vasoconstriction was measured as the LBNP-induced decrease in forearm muscle oxygenation by NIR spectroscopy. Using the pressure inside the LBNP chamber as a trigger, the Powerlab software was programed to mean the HbO2+MbO2 signal for 20 seconds before the onset of LBNP and for 20 seconds before the offset of LBNP; the difference between these mean values was taken as the LBNP-induced change in forearm muscle tissue oxygenation (20). Blood pressure, heart rate, and handgrip force were also recorded in response to 2 minutes of LBNP applied at rest and during the third to fifth minutes of the 7-minute exercise protocol.
Patients received 0.5 mg/kg of oral sildenafil or tadalafil on day 1, followed by 1.0 mg/kg of sildenafil or tadalafil on day 2. Patients then crossed over 2 weeks later for the opposite drug. Experiments were performed 1 hour (sildenafil) or 3 hours (tadalafil) after oral treatment to match the experiment with the peak blood level. Patients were queried about potential side-effects throughout the study visit. […]

[4] = test system: patients with Becker muscular dystrophy (BMD); test: Blood pressure, heart rate and adverse events in BMD tadalafil trial
Experimental: as §1, with “Subjects were studied in the supine position. Heart rate was measured continuously by electrocardiography and BP by automated oscillometric sphygmomanometry ([…] Monitor 300 Series, […].). […] The order” for “The order”

[5] = 0.5 mg/kg oral, analysis of 10 of the 12 boys
[6] = 0.5 mg/kg oral, analysis using all 12 boys
[7] = 1.0 mg/kg oral, analysis of 10 of the 12 boys
[8] = 1.0 mg/kg oral, analysis using all 12 boys

SMILES: CN1CC(=O)N2[C@H](c3ccc4c(c3)OCO4)c3[nH]c4ccccc4c3C[C@@H]2C1=O [tadalafil]
- peak blood concentration of tadalafil in patient P10 (no sympatholysis) ([1]; BMD patient P10, 20 mg oral): 300 ng/mL
- peak tadalafil blood concentration, mean ([1]; BMD patients, 20 mg oral): 260 ± 13 ng/mL
- peak tadalafil blood concentrations, range ([1]; BMD patients, 20 mg oral): 170 to 310 ng/mL
- peak blood level ([2]; boys with DMD, 1.0 mg/kg oral): 492.5 ± 47.3 ng/mL
- time of peak blood level after oral administration ([2]; boys with DMD, 0.5 and 1.0 mg/kg oral): 2 to 4 h
- time the drug remained elevated in the blood ([2]; male, human, in vivo, po): up to 24 hours
- half-life ([2]; male, human, boys with DMD, 0.5 mg/kg dose): 24.9 ± 3.1 h
- half-life ([2]; male, human, boys with DMD, 1.0 mg/kg dose): 39.5 ± 6.6 h
- attenuation of the reflex decrease in muscle oxygenation during handgrip [3, 5]: 45±8%
- attenuation of the reflex decrease in muscle oxygenation during handgrip ([3]; 0.5 mg/kg oral, analysis using all 12 boys (NIR in 10)): 57±16%
- LBNP-induced ΔHbO2+MbO2 (% TLS) at rest [3, 5]: −20±2%
- LBNP-induced ΔHbO2+MbO2 (% TLS) at rest [3, 6]: −20±2%
- LBNP-induced ΔHbO2+MbO2 (% TLS) during handgrip [3, 5]: −11±1%
- LBNP-induced ΔHbO2+MbO2 (% TLS) during handgrip [3, 6]: −9±3%
- attenuation of the reflex decrease in muscle oxygenation during handgrip [3, 7]: 63±5%
- attenuation of the reflex decrease in muscle oxygenation during handgrip ([3]; 1.0 mg/kg oral, analysis using all 12 boys (NIR in 10)): 80±11%
- LBNP-induced ΔHbO2+MbO2 (% TLS) at rest [3, 7]: −17±1%
- LBNP-induced ΔHbO2+MbO2 (% TLS) at rest [3, 8]: −16±2%
- LBNP-induced ΔHbO2+MbO2 (% TLS) during handgrip [3, 7]: −7±1%
- LBNP-induced ΔHbO2+MbO2 (% TLS) during handgrip [3, 8]: −4±2%
- adverse events or side-effects ([4]; 10 mg test dose and 20 mg study dose): no adverse events or side-effects
- diastolic blood pressure post-tadalafil ([4]; post-tadalafil (pre 72±2), P>0.05): 73±3 mm Hg
- heart rate post-tadalafil ([4]; post-tadalafil (pre 84±4), P>0.05): 80±4 beats per minute
- systolic blood pressure post-tadalafil ([4]; post-tadalafil (pre 116±3), P>0.05): 114±4 mmHg
